Consider eleven molecules from ChEMBL document CHEMBL1201862, “PubChem BioAssay data set” (2004).

Among the test systems are DU-145; HOP-62; HOP-92; Hs-578T; IGROV-1; Malme-3M; NCI-H522; OVCAR-3; RPMI-8226; RXF 393; SF-295; SK-MEL-28; SK-MEL-5; SNB-75; T47D; TK-10; HCT-15; NCI-H23; SF-539; BT-549.
Holding throughout (test): NCI anticancer screen, dose series, 48 h

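Grown in 96-well plates, cells were treated for 48 hours with each compound at five concentrations. Insufficient inhibition: endpoint recorded as highest concentration tested. Here, GI50 denotes the concentration required for 50% inhibition of growth.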 Active and inactive are the calls of the source. Rule as the data show it: active = GI50 up to about 1.1 µM and inactive = higher.

Consider `COC1=CC(=O)C(O)=C(C[C@@]2(C)[C@@H]3CCC[C@H](COC(=O)CCCCCNC(=O)OC(C)(C)C)[C@@]3(C)CC[C@@H]2C)C1=O`, for which the GI50 with DU-145 was > 10 µM (inactive); with HOP-62 it was 5.08 µM (inactive); with HOP-92, 3.9 µM (inactive); in the assay on Hs-578T it was 4.52 µM (inactive); in the assay on IGROV-1, 3.61 µM (inactive); in the assay on Malme-3M, 5.9 µM (inactive). In addition, the GI50 in the assay on NCI-H522 is 3.05 µM (inactive); with OVCAR-3, 5.92 µM (inactive); in the assay on RPMI-8226 it was 3.54 µM (inactive); with RXF 393 it was 3.67 µM (inactive); in the assay on SF-295, 5.28 µM (inactive); in the assay on SK-MEL-28 it was 8.63 µM (inactive). The GI50 in the assay on SK-MEL-5 was 3.77 µM (inactive); in the assay with SNB-75, 5.11 µM (inactive); with T47D, 4.45 µM (inactive); with TK-10, > 10 µM (inactive).
For the molecule `COC(=O)c1cc(CC2Cc3cc4c(cc3C2)CCC4)cc2c1CCC2`, the GI50 in the assay with DU-145 was > 100 µM (inactive); with HCT-15 it was 67.5 µM; with HOP-62, > 100 µM (inactive); in the assay with HOP-92 it was 88.9 µM (inactive); in the assay on Hs-578T, > 100 µM (inactive); in the assay on IGROV-1, 97.1 µM (inactive). For the same molecule, the GI50 was > 100 µM (inactive) with Malme-3M; > 100 µM (inactive) with NCI-H23; 57.4 µM (inactive) in the assay with NCI-H522; > 100 µM (inactive) in the assay with OVCAR-3; 41 µM (inactive) in the assay on RPMI-8226; 62.2 µM (inactive) with RXF 393. The GI50 is > 100 µM (inactive) with SF-295; > 100 µM (inactive) in the assay with SF-539; > 100 µM (inactive) with SK-MEL-28; 33.9 µM (inactive) in the assay with SK-MEL-5; > 100 µM (inactive) in the assay with SNB-75; > 100 µM (inactive) in the assay with T47D. Also, in the assay on TK-10, the GI50 is > 100 µM (inactive).
In the case of `C=C1C(=O)O[C@@H]2C=C(C)C3=CC(=O)[C@](C)(C[C@H](OC(=O)/C(C)=C\C)[C@@H]12)O3`, the GI50 was 4.1 µM (inactive) in the assay with DU-145; 0.328 µM with HCT-15; 3.14 µM (inactive) in the assay on HOP-62; 0.671 µM (active) with HOP-92; 2.85 µM (inactive) in the assay on Hs-578T; 1.03 µM (active) in the assay on IGROV-1. Also, the GI50 was 1.22 µM (inactive) in the assay with NCI-H23; 0.144 µM (active) in the assay with NCI-H522; 0.2 µM (active) with RPMI-8226; 0.29 µM (active) in the assay with RXF 393; 2.42 µM (inactive) in the assay on SF-295; 2.43 µM (inactive) with SF-539. Moreover, the GI50 with SK-MEL-28 is 1.24 µM (inactive); with SK-MEL-5, 0.542 µM (active); in the assay with SNB-75, 13.5 µM (inactive); in the assay with T47D, 0.916 µM (active).
On to `O=C(CC(C(=O)c1ccsc1)c1ccccc1)c1cccs1` (configuration not stated), for which the GI50 in the assay on DU-145 is > 100 µM (inactive); in the assay on HCT-15 it was 56.9 µM; in the assay on HOP-62 it was > 100 µM (inactive); with HOP-92 it was > 100 µM (inactive); with Hs-578T, 58.7 µM (inactive); in the assay on IGROV-1, > 100 µM (inactive). In addition, the GI50 was 22 µM (inactive) in the assay with NCI-H23; 41.6 µM (inactive) with NCI-H522; 96.8 µM (inactive) with OVCAR-3; > 100 µM (inactive) with RPMI-8226; 59.3 µM (inactive) with RXF 393; 33.3 µM (inactive) in the assay with SF-295. For the same molecule, the GI50 with SF-539 was > 100 µM (inactive); in the assay on SK-MEL-28, > 100 µM (inactive); with SK-MEL-5 it was 43.2 µM (inactive); in the assay on SNB-75, 72.6 µM (inactive); with T47D it was 11.8 µM (inactive); with TK-10 it was > 100 µM (inactive).
For `Cc1c(N)nc([C@H](CC(N)=O)NC[C@H](N)C(N)=O)nc1C(=O)N[C@H](C(=O)N[C@H](C)[C@@H](O)[C@H](C)C(=O)N[C@H](C(=O)NCCc1nc(-c2nc(C(=O)NCCC[S+](C)C)cs2)cs1)[C@@H](C)O)C(OC1OC(CO)C(O)C(O)C1OC1OC(CO)C(O)C(OC(N)=O)C1O)c1c[nH]cn1` (some centres not stated), the GI50 with BT-549 was 10.2 µM (inactive); with DU-145, 3.66 µM (inactive); in the assay on HCT-15, 3.27 µM; in the assay with HOP-62 it was 0.0838 µM (active); in the assay with HOP-92, 0.0841 µM (active); with IGROV-1, 2.29 µM (inactive). The GI50 with Malme-3M was 0.356 µM (active); in the assay with NCI-H23, 0.637 µM (active); in the assay with NCI-H522, 0.622 µM (active); with OVCAR-3 it was 4.67 µM (inactive); in the assay on RPMI-8226, 17 µM (inactive); in the assay on RXF 393, 0.236 µM (active). The GI50 in the assay with SF-295 was 0.114 µM (active); in the assay with SF-539, 0.02 µM (active); with SK-MEL-28 it was 18.2 µM (inactive); in the assay with SK-MEL-5 it was 0.776 µM (active); in the assay with SNB-75, 0.426 µM (active); in the assay on TK-10 it was 10.8 µM (inactive).
Take `O=C1C=C2CCC[C@H]3OC(=O)C[C@@]23CC1`: the GI50 with DU-145 was > 100 µM (inactive); in the assay on HCT-15, over 100 µM; with HOP-62, > 100 µM (inactive); with HOP-92, > 100 µM (inactive); in the assay with Hs-578T it was > 100 µM (inactive); with IGROV-1, > 100 µM (inactive). For the same molecule, the GI50 in the assay on Malme-3M, in the assay on NCI-H23, in the assay on NCI-H522, with OVCAR-3, in the assay on RPMI-8226 and in the assay with RXF 393 was > 100 µM (inactive) each time. For the same molecule, the GI50 in the assay on SF-295, in the assay with SF-539, in the assay with SK-MEL-28, with SK-MEL-5, in the assay on T47D and in the assay on TK-10 was > 100 µM (inactive) each time.
Consider `Cn1cnc(N2CCCC2)c(C#N)c1=O`, for which the GI50 with DU-145 was > 100 µM (inactive); with HCT-15, over 100 µM; with HOP-62, > 100 µM (inactive); with HOP-92 it was > 100 µM (inactive); in the assay on Hs-578T, > 100 µM (inactive); in the assay on IGROV-1 it was > 100 µM (inactive). In addition, the GI50 in the assay on Malme-3M, with NCI-H23, with NCI-H522, with OVCAR-3, in the assay on RPMI-8226 and in the assay on RXF 393 was > 100 µM (inactive) in each case. Moreover, the GI50 with SF-295, in the assay with SF-539, with SK-MEL-28, with SK-MEL-5, in the assay with T47D and in the assay on TK-10 was > 100 µM (inactive) in each case.
`COc1ccccc1NC(=S)NN=C(C)c1cccc(C(C)=NNC(=S)Nc2ccccc2OC)n1`: the GI50 in the assay with DU-145 was 24 µM (inactive); with HCT-15, 28.5 µM; with HOP-62 it was 42.8 µM (inactive); in the assay with HOP-92, 21.7 µM (inactive); with IGROV-1, 25.5 µM (inactive); in the assay with Malme-3M, 3.49 µM (inactive). Also, the GI50 in the assay with NCI-H23 is 33.9 µM (inactive); in the assay on NCI-H522 it was 45.6 µM (inactive); in the assay on OVCAR-3, 7.87 µM (inactive); in the assay with RPMI-8226, 24.6 µM (inactive); in the assay on RXF 393, 12.9 µM (inactive); with SF-295, 26.8 µM (inactive). Moreover, the GI50 was 19.9 µM (inactive) in the assay on SF-539; 79.4 µM (inactive) in the assay on SK-MEL-28; 3.94 µM (inactive) with SK-MEL-5; 94.6 µM (inactive) in the assay with SNB-75; > 100 µM (inactive) in the assay on T47D; 0.18 µM (active) with TK-10.
For `O=C(/N=N/c1ccc(Cl)cc1Cl)NNc1ccc(Cl)cc1Cl`, the GI50 was 14.8 µM (inactive) in the assay with BT-549; 14.7 µM (inactive) in the assay with DU-145; 19.6 µM with HCT-15; 1.75 µM (inactive) in the assay on HOP-62; 27 µM (inactive) with IGROV-1; 18.6 µM (inactive) in the assay with Malme-3M. For the same molecule, the GI50 is 17.1 µM (inactive) in the assay on NCI-H23; 19.1 µM (inactive) in the assay with NCI-H522; 15.9 µM (inactive) with OVCAR-3; 19 µM (inactive) in the assay with RPMI-8226; 20.7 µM (inactive) in the assay on SK-MEL-28; 14.9 µM (inactive) with SK-MEL-5. Besides, the GI50 with SNB-75 is 31.6 µM (inactive); with T47D, 21.7 µM (inactive); in the assay with TK-10, 24.3 µM (inactive).
Take `[BH3-][P+]1(CC[P@@+]([BH3-])(c2ccccc2)c2ccccc2OC)[C@@H](C)[C@@H](O)[C@H](O)[C@@H]1C` (some centres not stated): the GI50 with DU-145 is 17.3 µM (inactive); in the assay with HCT-15, 17.5 µM; in the assay with HOP-62 it was 16.9 µM (inactive); in the assay on HOP-92, 16.6 µM (inactive); in the assay with Hs-578T, 10.3 µM (inactive); in the assay with IGROV-1 it was 17.3 µM (inactive). Also, the GI50 in the assay on Malme-3M was 11.2 µM (inactive); in the assay with NCI-H23, 16 µM (inactive); with NCI-H522 it was 12.4 µM (inactive); in the assay on OVCAR-3, 16.1 µM (inactive); with RPMI-8226, 23.4 µM (inactive); in the assay on RXF 393 it was 16.4 µM (inactive). Moreover, the GI50 was 15.8 µM (inactive) in the assay with SF-295; 16.5 µM (inactive) in the assay with SF-539; 17.9 µM (inactive) in the assay with SK-MEL-28; 15.7 µM (inactive) in the assay on SK-MEL-5; 14.8 µM (inactive) in the assay on SNB-75; 15.9 µM (inactive) with T47D. In addition, the GI50 with TK-10 is 17.8 µM (inactive).
Regarding `Oc1cccc(-c2nc3cc(F)ccc3s2)c1`, the GI50 in the assay with BT-549 was 16.9 µM (inactive); with DU-145 it was 18.7 µM (inactive); with HCT-15, 11.2 µM; in the assay on IGROV-1, 2.34 µM (inactive); in the assay on Malme-3M, 16.2 µM (inactive); with NCI-H23, 16.6 µM (inactive). The GI50 is 10.6 µM (inactive) in the assay with NCI-H522; 11.5 µM (inactive) with OVCAR-3; 20.3 µM (inactive) in the assay with RPMI-8226; 25.9 µM (inactive) in the assay with RXF 393; 20.6 µM (inactive) in the assay on SF-295; 19.4 µM (inactive) in the assay with SF-539. Besides, the GI50 in the assay with SK-MEL-28 is 19.2 µM (inactive); with SK-MEL-5, 10.7 µM (inactive); in the assay with SNB-75, 11.1 µM (inactive); in the assay with T47D, 0.225 µM (active); with TK-10, 12.4 µM (inactive).
